ChEMBL document CHEMBL1221367, “A new series of macrolide derivatives with 4''-O-saccharide substituents” (2010)
Values after ≈ are worked out from the molar mass of the structure shown.

Tests used:
Format in all cases: functional
Streptococcus pyogenes [1] = assay: Antibacterial activity against erythromycin-resistant Streptococcus pyogenes 8902 expressing ermB by the broth microdilution method
Staphylococcus aureus [2] = assay: Antibacterial activity against methicillin-susceptible Staphylococcus aureus ATCC 29213 by the broth microdilution method
Streptococcus pneumoniae [3] = assay: Antibacterial activity against erythromycin-resistant Streptococcus pneumoniae ERSP-2 expressing ermB and mef by the broth microdilution method
Streptococcus pyogenes [4] = assay: Antibacterial activity against Streptococcus pyogenes ERSPy-1 expressing mef by the broth microdilution method
[5] = test system: Staphylococcus epidermidis; assay: Antibacterial activity against methicillin-resistant Staphylococcus epidermidis MRSE-1 by the broth microdilution method
Staphylococcus aureus [6] = assay: Antibacterial activity against methicillin-resistant Staphylococcus aureus BK2464 by the broth microdilution method
Streptococcus pneumoniae [7] = assay: Ratio of compound MIC to clarithromycin MIC for erythromycin-resistant Streptococcus pneumoniae ERSP-2 expressing ermB and mef
Streptococcus pyogenes [8] = assay: Ratio of compound MIC to clarithromycin MIC for Streptococcus pyogenes ERSPy-1 expressing mef
Streptococcus pyogenes [9] = assay: Ratio of compound MIC to clarithromycin MIC for erythromycin-resistant Streptococcus pyogenes 8902 expressing ermB

SMILES	MIC (Streptococcus pyogenes [1]) [µg/mL]	MIC (Staphylococcus aureus [2]) [µg/mL]	MIC (Streptococcus pneumoniae [3]) [µg/mL]	MIC (Streptococcus pyogenes [4]) [µg/mL]	MIC [5] [µg/mL]	MIC (Staphylococcus aureus [6]) [µg/mL]	Ratio (Streptococcus pneumoniae [7])	Ratio (Streptococcus pyogenes [8])	Ratio (Streptococcus pyogenes [9])
CC[C@H]1OC(=O)[C@H](C)[C@@H](O[C@H]2C[C@@](C)(OC)[C@@H](O[C@H]3O[C@H](COC(C)=O)[C@@H](OC(=O)c4ccccc4)[C@H](OC(C)=O)[C@H]3OC(C)=O)[C@H](C)O2)[C@H](C)[C@@H](O[C@@H]2O[C@H](C)C[C@H](N(C)C)[C@H]2O)[C@](C)(OC)C[C@@H](C)C(=O)[C@H](C)[C@@H](O)[C@]1(C)O	16 (≈ 14 µM)	16 (≈ 14 µM)	16 (≈ 14 µM)	1 (≈ 0.877 µM)	16 (≈ 14 µM)	> 16	–	–	–
CC[C@H]1OC(=O)[C@H](C)[C@@H](O[C@H]2C[C@@](C)(OC)[C@@H](O[C@@H]3O[C@H](COC(=O)c4ccccc4)[C@@H](O)[C@H](O)[C@H]3OC(C)=O)[C@H](C)O2)[C@H](C)[C@@H](O[C@@H]2O[C@H](C)C[C@H](N(C)C)[C@H]2O)[C@](C)(OC)C[C@@H](C)C(=O)[C@H](C)[C@@H](O)[C@]1(C)O	16 (≈ 15.1 µM)	16 (≈ 15.1 µM)	8 (≈ 7.57 µM)	8 (≈ 7.57 µM)	16 (≈ 15.1 µM)	> 16	–	–	–
CC[C@H]1OC(=O)[C@H](C)C(=O)[C@H](C)[C@@H](O[C@@H]2O[C@H](C)C[C@H](N(C)C)[C@H]2O)[C@](C)(OC)C[C@@H](C)C(=O)[C@H](C)[C@H]2N(CCCCn3cnc(-c4cccnc4)c3)C(=O)O[C@]12C [TELITHROMYCIN]	0.25 (≈ 0.308 µM)	0.125 (≈ 0.154 µM)	0.125 (≈ 0.154 µM)	0.25 (≈ 0.308 µM)	0.125 (≈ 0.154 µM)	> 32	–	–	–
CC[C@H]1OC(=O)[C@H](C)[C@@H](O[C@H]2C[C@@](C)(OC)[C@@H](O[C@@H]3O[C@H](CO)[C@@H](O[C@H]4O[C@@H](CO)[C@H](O)[C@@H](O)[C@@H]4O)[C@H](O)[C@H]3O)[C@H](C)O2)[C@H](C)[C@@H](O[C@@H]2O[C@H](C)C[C@H](N(C)C)[C@H]2O)[C@](C)(OC)C[C@@H](C)C(=O)[C@H](C)[C@@H](O)[C@]1(C)O	> 16	> 16	16 (≈ 14.9 µM)	> 16	> 16	> 16	–	–	–
CC[C@H]1OC(=O)[C@H](C)[C@@H](O[C@H]2C[C@@](C)(OC)[C@@H](O[C@@H]3O[C@H](CO)[C@@H](O)[C@H](O)[C@H]3O)[C@H](C)O2)[C@H](C)[C@@H](O[C@@H]2O[C@H](C)C[C@H](N(C)C)[C@H]2O)[C@](C)(OC)C[C@@H](C)C(=O)[C@H](C)[C@H]2N(CCCCn3cnc4ncccc43)C(=O)O[C@]12C	16 (≈ 14.4 µM)	> 16	8 (≈ 7.22 µM)	8 (≈ 7.22 µM)	> 16	> 16	–	–	–
CC[C@H]1OC(=O)[C@H](C)[C@@H](O[C@H]2C[C@@](C)(OC)[C@@H](O)[C@H](C)O2)[C@H](C)[C@@H](O[C@@H]2O[C@H](C)C[C@H](N(C)C)[C@H]2O)[C@](C)(OC)C[C@@H](C)C(=O)[C@H](C)[C@@H](O)[C@]1(C)O [CLARITHROMYCIN]	32 (≈ 42.8 µM)	0.25 (≈ 0.334 µM)	16 (≈ 21.4 µM)	2 (≈ 2.67 µM)	16 (≈ 21.4 µM)	> 32	–	–	–
CC[C@H]1OC(=O)[C@H](C)[C@@H](O[C@H]2C[C@@](C)(OC)[C@@H](O[C@@H]3O[C@H](CO)[C@@H](O)[C@H](O)[C@H]3O)[C@H](C)O2)[C@H](C)[C@@H](O[C@@H]2O[C@H](C)C[C@H](N(C)C)[C@H]2O)[C@](C)(OC)C[C@@H](C)C(=O)[C@H](C)[C@H]2N(CCCCn3cnc4cccnc43)C(=O)O[C@]12C	16 (≈ 14.4 µM)	> 16	8 (≈ 7.22 µM)	16 (≈ 14.4 µM)	> 16	> 16	–	–	–
CC[C@H]1OC(=O)[C@H](C)[C@@H](O[C@H]2C[C@@](C)(OC)[C@@H](O[C@@H]3O[C@H](CO)[C@@H](O)[C@H](O)[C@H]3OC(C)=O)[C@H](C)O2)[C@H](C)[C@@H](O[C@@H]2O[C@H](C)C[C@H](N(C)C)[C@H]2O)[C@](C)(OC)C[C@@H](C)C(=O)[C@H](C)[C@@H](O)[C@]1(C)O	> 16	> 16	16 (≈ 16.8 µM)	16 (≈ 16.8 µM)	> 16	> 16	–	–	–
CC[C@H]1OC(=O)[C@H](C)[C@@H](O[C@H]2C[C@@](C)(OC)[C@@H](O[C@@H]3O[C@@H]4COC(c5ccccc5)O[C@H]4[C@H](O)[C@H]3O)[C@H](C)O2)[C@H](C)[C@@H](O[C@@H]2O[C@H](C)C[C@H](N(C)C)[C@H]2O)[C@](C)(OC)C[C@@H](C)C(=O)[C@H](C)[C@H]2N(CCCCn3cnc4cccnc43)C(=O)O[C@]12C (stereo not given in full)	4 (≈ 3.34 µM)	4 (≈ 3.34 µM)	2 (≈ 1.67 µM)	0.5 (≈ 0.418 µM)	4 (≈ 3.34 µM)	> 16	8	4	8
CC[C@H]1OC(=O)[C@H](C)[C@@H](O[C@H]2C[C@@](C)(OC)[C@@H](O[C@@H]3O[C@H](CO)[C@@H](O)[C@H](O)[C@H]3O)[C@H](C)O2)[C@H](C)[C@@H](O[C@@H]2O[C@H](C)C[C@H](N(C)C)[C@H]2O)[C@](C)(OC)C[C@@H](C)C(=O)[C@H](C)[C@@H](O)[C@]1(C)O	16 (≈ 17.6 µM)	> 16	16 (≈ 17.6 µM)	16 (≈ 17.6 µM)	16 (≈ 17.6 µM)	> 16	–	–	–
CC[C@H]1OC(=O)[C@H](C)[C@@H](O[C@H]2C[C@@](C)(OC)[C@@H](O[C@@H]3O[C@@H]4COC(c5ccccc5)O[C@H]4[C@H](O)[C@H]3O)[C@H](C)O2)[C@H](C)[C@@H](O[C@@H]2O[C@H](C)C[C@H](N(C)C)[C@H]2O)[C@](C)(OC)C[C@@H](C)C(=O)[C@H](C)[C@H]2N(CCCCn3cnc4ncccc43)C(=O)O[C@]12C (stereo not given in full)	8 (≈ 6.69 µM)	4 (≈ 3.34 µM)	1 (≈ 0.836 µM)	2 (≈ 1.67 µM)	4 (≈ 3.34 µM)	> 16	–	–	–
CC[C@H]1OC(=O)[C@H](C)[C@@H](O[C@H]2C[C@@](C)(OC)[C@@H](O[C@@H]3O[C@H](COC(=O)c4ccccc4)[C@@H](OC(=O)c4ccccc4)[C@H](OC(C)=O)[C@H]3OC(C)=O)[C@H](C)O2)[C@H](C)[C@@H](O[C@@H]2O[C@H](C)C[C@H](N(C)C)[C@H]2O)[C@](C)(OC)C[C@@H](C)C(=O)[C@H](C)[C@@H](O)[C@]1(C)O	16 (≈ 13.3 µM)	> 16	16 (≈ 13.3 µM)	8 (≈ 6.65 µM)	16 (≈ 13.3 µM)	> 16	–	–	–
